Where two headings read alike, the source gives them in different places.

One test has as its system MV-4-11 cells. The test can be described thus: Half inhibitory concentration (IC50) on BET-expressing tumor cells, CCK-8, MV-4-11.
The next test addresses ALK protein (Homo sapiens, UniProt Q9UM73). The test can be described thus: Western-blot half degradation concentration (DC50) of ALK protein in H3122 cells. In kind it is cell-based. The settings on record: 24 h drug treatment, read-out: DC50 (nM)/ H3122 cell line. As for the experimental part: ALK-positive SR cells (human large cell immunoblastic lymphoma) were purchased from the American Type Culture Collection (ATCC); H3122 cells (human non-small cell lung cancer) were from the Shanghai University of Science and Technology Lin Haifan's research group.
The cells used in this present disclosure were cultured in a 37° C. incubator containing 5% CO2.
DC50 (drug concentration corresponding to protein degradation to 50%) calculation: according to the gray value of the corresponding Western blotting band after drug treatment, fitting the relationship curve between drug concentration and gray value to calculate the drug concentration range corresponding to half of the gray value.

Test [1] deals with K562 cells (BCR-ABL positive). The test can be described thus: Half inhibitory concentration (IC50) on tumor cells, CCK-8, K562. The settings on record: Homo sapiens, K562, 48 h, read-out: IC50 (nM)/K562 cell line.
Setting [2] is: Homo sapiens, MV4-11, read-out: IC50 (nM)/MV-4-11 cell line, MV-4-11 cells, 48/72 h, CCK-8.
Where [3] appears, read: read-out: IC50 (nM)/MV-4-11 cell line, MV-4-11 cells, 48/72 h, CCK-8.

Chain of ALK protein (Q9UM73 with tags, fused parts or gaps): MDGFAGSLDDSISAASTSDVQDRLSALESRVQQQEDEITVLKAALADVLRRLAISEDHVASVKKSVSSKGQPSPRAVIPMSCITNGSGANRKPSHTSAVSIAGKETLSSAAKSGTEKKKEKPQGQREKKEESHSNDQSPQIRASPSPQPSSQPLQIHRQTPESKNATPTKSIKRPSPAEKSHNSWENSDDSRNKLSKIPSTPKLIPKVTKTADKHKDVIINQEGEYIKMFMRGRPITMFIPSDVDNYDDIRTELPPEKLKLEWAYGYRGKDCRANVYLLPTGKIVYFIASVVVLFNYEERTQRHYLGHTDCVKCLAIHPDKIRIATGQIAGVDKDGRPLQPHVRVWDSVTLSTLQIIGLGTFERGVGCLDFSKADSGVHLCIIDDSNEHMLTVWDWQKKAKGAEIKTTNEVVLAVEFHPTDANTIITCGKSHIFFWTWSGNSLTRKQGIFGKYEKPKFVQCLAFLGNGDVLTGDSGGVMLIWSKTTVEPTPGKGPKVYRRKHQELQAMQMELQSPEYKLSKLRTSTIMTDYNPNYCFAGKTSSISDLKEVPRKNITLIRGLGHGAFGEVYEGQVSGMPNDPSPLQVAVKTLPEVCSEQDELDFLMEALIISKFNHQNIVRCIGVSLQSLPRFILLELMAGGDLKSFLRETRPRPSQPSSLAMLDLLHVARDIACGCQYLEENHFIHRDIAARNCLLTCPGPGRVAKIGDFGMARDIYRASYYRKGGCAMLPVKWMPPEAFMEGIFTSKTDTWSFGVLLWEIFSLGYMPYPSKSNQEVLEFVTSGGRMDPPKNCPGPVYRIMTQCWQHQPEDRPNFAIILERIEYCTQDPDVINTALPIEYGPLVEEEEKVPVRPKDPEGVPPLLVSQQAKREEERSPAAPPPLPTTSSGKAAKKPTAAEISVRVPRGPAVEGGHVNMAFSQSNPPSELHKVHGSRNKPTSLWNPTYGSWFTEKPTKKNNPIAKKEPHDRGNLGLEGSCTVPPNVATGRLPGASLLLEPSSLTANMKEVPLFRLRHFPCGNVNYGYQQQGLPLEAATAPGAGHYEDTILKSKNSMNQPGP
Method for MV-4-11 cells: Determination of the Half Inhibitory Concentration (IC50) of PROTAD Compounds on Tumor Cells
MV-411 cells, MM1S cells and SR cells were seeded in 100 μL IMDM/RPMI1640/DMEM complete medium at a density of 15000/10000 cells/well; MDA-MB-231 cells, MDA-MB-468 cells, and MDA-MB453 cells were seeded in 100 μL IMDM/RPMI1640/DMEM complete medium at a density of 3000/5000 cells/well, respectively. 100 μL of the inoculated cells were treated with 0.5 μL diluted PROTAD compounds of the present disclosure to be tested at 10 successively decreasing concentrations (starting at the highest concentration of 10 μM; 5-fold serial dilutions). After the cells were treated with the tested drugs 48/72 h, the cell viability was determined according to the CCK-8 reagent manual. The negative control was DMSO, and the positive control was a commercial inhibitor. After CCK-8 treatment for 2 h, the value of O.D.450 was measured using a microplate reader.

Consider `Cc1sc2c(c1C)C(c1ccc(Cl)cc1)=N[C@@H](CC(=O)N1CCN(CCCSc3cccc4c3CN(C3CCC(=O)NC3=O)C4=O)CC1)c1nnc(C)n1-2` (stereo partly drawn) [SIAIS213117, 3-(4-((3-(4-(2-((S)-4-(4-chlorophenyl)-2,3,9-trimethyl-6H-thieno[3,2-f][1,2,4]triazolo[4,3-a][1,4]diazepin-6-yl)acetyl)piperazin-1-yl)propyl)thio)-1-oxoisoindolin-2-yl)piperidine-2,6-dione], for which the figures for the IC50 in the test with MV-4-11 cells (setting [2]) and in the test on MV-4-11 cells (setting [3]) were 0.063 nM and 0.041 nM, respectively.

With `Cc1sc2c(c1C)C(c1ccc(Cl)cc1)=N[C@@H](CC(=O)NCCN1CCNCC1)c1nnc(C)n1-2` [SIAIS213130], the IC50 stood at 29.8 nM with MV-4-11 cells (setting [2]) and 17.7 nM with MV-4-11 cells (setting [3]).

On to `Cc1sc2c(c1C)C(c1ccc(Cl)cc1)=N[C@@H](CC(=O)NCCOCCSc1cccc3c1CN(C1CCC(=O)NC1=O)C3=O)c1nnc(C)n1-2` (stereo partly drawn) [SIAIS213100, 2-((S)-4-(4-chlorophenyl)-2,3,9-trimethyl-6H-thieno[3,2-f][1,2,4]triazolo[4,3-a][1,4]diazepin-6-yl)-N-(2-(2-((2-(2,6-dioxopiperidin-3-yl)-1-oxoisoindolin-4-yl)thio)ethoxy)ethyl)acetamide], for which the IC50 with MV-4-11 cells (setting [2]) turned out to be 0.5 ± 0.1 nM.

As for `CCc1cc2c(cc1N1CCN(C(=O)CCCCSc3cccc4c3C(=O)N(C3CCC(=O)NC3=O)C4=O)CC1)C(C)(C)c1[nH]c3cc(C#N)ccc3c1C2=O` (stereo not drawn) [SIAIS164072, 8-(4-(5-((2-(2,6-dioxopiperidin-3-yl)-1,3-dioxoisoindolin-4-yl)thio)pentanoyl)piperazin-1-yl)-9-ethyl-6,6-dimethyl-11-oxo-6,11-dihydro-5H-benzo[b]carbazole-3-carbonitrile], at ALK protein, the DC50 was determined as 63 nM.

For the compound `CCc1cc2c(cc1N1CCN(C(=O)CCCCCSc3cccc4c3C(=O)N(C3CCC(=O)NC3=O)C4=O)CC1)C(C)(C)c1[nH]c3cc(C#N)ccc3c1C2=O` (stereo not drawn) [SIAIS164071, 8-(4-(6-((2-(2,6-dioxopiperidin-3-yl)-1,3-dioxoisoindolin-4-yl)thio)hexanoyl)piperazin-1-yl)-9-ethyl-6,6-dimethyl-11-oxo-6,11-dihydro-5H-benzo[b]carbazole-3-carbonitrile], the DC50 at ALK protein came out at 204 nM.

Regarding `CCc1cc2c(cc1N1CCN(C(=O)CCSc3cccc4c3C(=O)N(C3CCC(=O)NC3=O)C4=O)CC1)C(C)(C)c1[nH]c3cc(C#N)ccc3c1C2=O` (stereo not drawn) [SIAIS164069, 8-(4-(3-((2-(2,6-dioxopiperidin-3-yl)-1,3-dioxoisoindolin-4-yl)thio)propanoyl)piperazin-1-yl)-9-ethyl-6,6-dimethyl-11-oxo-6,11-dihydro-5H-benzo[b]carbazole-3-carbonitrile], the DC50 on ALK protein was in the range of 100 to 500 nM.

With `CCc1cc2c(cc1N1CCN(C(=O)CCCSc3cccc4c3C(=O)N(C3CCC(=O)NC3=O)C4=O)CC1)C(C)(C)c1[nH]c3cc(C#N)ccc3c1C2=O` (stereo not drawn) [SIAIS164070, 8-(4-(4-((2-(2,6-dioxopiperidin-3-yl)-1,3-dioxoisoindolin-4-yl)thio)butanoyl)piperazin-1-yl)-9-ethyl-6,6-dimethyl-11-oxo-6,11-dihydro-5H-benzo[b]carbazole-3-carbonitrile], the DC50 on ALK protein was 100 to 500 nM.

Take `Cc1sc2c(c1C)C(c1ccc(Cl)cc1)=N[C@@H](CC(=O)NCCN1CCN(CCCCCSc3cccc4c3CN(C3CCC(=O)NC3=O)C4=O)CC1)c1nnc(C)n1-2` (stereo partly drawn) [SIAIS213133, 2-((S)-4-(4-chlorophenyl)-2,3,9-trimethyl-6H-thieno[3,2-f][1,2,4]triazolo[4,3-a][1,4]diazepin-6-yl)-N-(2-(4-(5-((2-(2,6-dioxopiperidin-3-yl)-1-oxoisoindolin-4-yl)thio)pentyl)piperazin-1-yl)ethyl)acetamide]: in the test with MV-4-11 cells (setting [2]), the IC50 was determined as 0.036 ± 0.045 nM.

Regarding `CCc1cc2c(cc1N1CCN(C(=O)CCCCCCSc3cccc4c3C(=O)N(C3CCC(=O)NC3=O)C4=O)CC1)C(C)(C)c1[nH]c3cc(C#N)ccc3c1C2=O` (stereo not drawn) [SIAIS164073, 8-(4-(7-((2-(2,6-dioxopiperidin-3-yl)-1,3-dioxoisoindolin-4-yl)thio)heptanoyl)piperazin-1-yl)-9-ethyl-6,6-dimethyl-11-oxo-6,11-dihydro-5H-benzo[b]carbazole-3-carbonitrile], the DC50 on ALK protein fell in the range of 100 to 500 nM.

For `Cc1sc2c(c1C)C(c1ccc(Cl)cc1)=N[C@@H](CC(=O)N1CCN(CCCCSc3cccc4c3CN(C3CCC(=O)NC3=O)C4=O)CC1)c1nnc(C)n1-2` (stereo partly drawn) [SIAIS213138, 3-(4-((4-(4-(2-((S)-4-(4-chlorophenyl)-2,3,9-trimethyl-6H-thieno[3,2-f][1,2,4]triazolo[4,3-a][1,4]diazepin-6-yl)acetyl)piperazin-1-yl)butyl)thio)-1-oxoisoindolin-2-yl)piperidine-2,6-dione], the IC50 stood at 0.084 nM with MV-4-11 cells (setting [2]) and 0.051 nM with MV-4-11 cells (setting [3]).

Take `Cc1sc2c(c1C)C(c1ccc(Cl)cc1)=N[C@@H](CC(=O)N1CCNCC1)c1nnc(C)n1-2` [SIAIS213113]: the IC50 in the test with MV-4-11 cells (setting [2]) came to 21.6 nM; in the test on MV-4-11 cells (setting [3]), 12.9 nM.

For `Cc1sc2c(c1C)C(c1ccc(Cl)cc1)=N[C@@H](CC(=O)NCCN1CCN(CCCCSc3cccc4c3CN(C3CCC(=O)NC3=O)C4=O)CC1)c1nnc(C)n1-2` (stereo partly drawn) [SIAIS213139, 2-((S)-4-(4-chlorophenyl)-2,3,9-trimethyl-6H-thieno[3,2-f][1,2,4]triazolo[4,3-a][1,4]diazepin-6-yl)-N-(2-(4-(4-((2-(2,6-dioxopiperidin-3-yl)-1-oxoisoindolin-4-yl)thio)butyl)piperazin-1-yl)ethyl)acetamide], the IC50 with MV-4-11 cells (setting [2]) turned out to be 0.027 ± 0.006 nM.

Take `Cc1nc(Nc2ncc(C(=O)Nc3c(C)cccc3Cl)s2)cc(N2CCN(CCCSc3cccc4c3CN(C3CCC(=O)NC3=O)C4=O)CC2)n1` (stereo not drawn) [SIAIS171181, N-(2-chloro-6-methylphenyl)-2-((6-(4-(3-((2-(2,6-dioxopiperidin-3-yl)-1-oxoisoindolin-4-yl)thio)propyl)piperazin-1-yl)-2-methylpyrimidin-4-yl)amino)thiazole-5-carboxamide]: the IC50 in test [1] was found to be 0.09 nM.

Consider `Cc1ccc(C(=O)Nc2ccc(CN3CCN(C(=O)CCCCCCSc4cccc5c4C(=O)N(C4CCC(=O)NC4=O)C5=O)CC3)c(C(F)(F)F)c2)cc1C#Cc1cnc2cccnn12` (stereo not drawn) [SIAIS220050, N-(4-((4-(7-((2-(2,6-dioxopiperidin-3-yl)-1,3-dioxoisoindolin-4-yl)thio)heptanoyl)piperazin-1-yl)methyl)-3-(trifluoromethyl)phenyl)-3-(imidazo[1,2-b]pyridazin-3-ylethynyl)-4-methylbenzamide], for which the IC50 in test [1] stood at 12.8 nM.

As for `Cc1ccc(C(=O)Nc2ccc(CN3CCN(C(=O)CCCCCSc4cccc5c4C(=O)N(C4CCC(=O)NC4=O)C5=O)CC3)c(C(F)(F)F)c2)cc1C#Cc1cnc2cccnn12` (stereo not drawn) [SIAIS220049, N-(4-((4-(6-((2-(2,6-dioxopiperidin-3-yl)-1,3-dioxoisoindolin-4-yl)thio)hexanoyl)piperazin-1-yl)methyl)-3-(trifluoromethyl)phenyl)-3-(imidazo[1,2-b]pyridazin-3-ylethynyl)-4-methylbenzamide], the IC50 in test [1] came to 5.75 nM.

As for `Cc1ccc(C(=O)Nc2ccc(CN3CCN(C(=O)CCSc4cccc5c4C(=O)N(C4CCC(=O)NC4=O)C5=O)CC3)c(C(F)(F)F)c2)cc1C#Cc1cnc2cccnn12` (stereo not drawn) [SIAIS220046, N-(4-((4-(3-((2-(2,6-dioxopiperidin-3-yl)-1,3-dioxoisoindolin-4-yl)thio)propanoyl)piperazin-1-yl)methyl)-3-(trifluoromethyl)phenyl)-3-(imidazo[1,2-b]pyridazin-3-ylethynyl)-4-methylbenzamide], the IC50 in test [1] came to 2.97 nM.

In the case of `CCc1cc2c(cc1N1CCN(C(=O)CSc3cccc4c3C(=O)N(C3CCC(=O)NC3=O)C4=O)CC1)C(C)(C)c1[nH]c3cc(C#N)ccc3c1C2=O` (stereo not drawn) [SIAIS164068, 8-(4-(2-((2-(2,6-dioxopiperidin-3-yl)-1,3-dioxoisoindolin-4-yl)thio)acetyl)piperazin-1-yl)-9-ethyl-6,6-dimethyl-11-oxo-6,11-dihydro-5H-benzo[b]carbazole-3-carbonitrile], the DC50 at ALK protein was 104 nM.

For `COc1cc(Nc2c(C#N)cnc3cc(OCCCN4CCN(C(=O)CCCCCSc5cccc6c5C(=O)N(C5CCC(=O)NC5=O)C6=O)CC4)c(OC)cc23)c(Cl)cc1Cl` (stereo not drawn) [SIAIS151172, 4-((2,4-dichloro-5-methoxyphenyl)amino)-7-(3-(4-(6-((2-(2,6-dioxopiperidin-3-yl)-1,3-dioxoisoindolin-4-yl)thio)hexanoyl)piperazin-1-yl)propoxy)-6-methoxyquinoline-3-carbonitrile], the IC50 in test [1] was 1370 nM.

On to `Cc1sc2c(c1C)C(c1ccc(Cl)cc1)=N[C@@H](CC(=O)NCCN1CCN(CCCSc3cccc4c3CN(C3CCC(=O)NC3=O)C4=O)CC1)c1nnc(C)n1-2` (stereo partly drawn) [SIAIS213136, 2-((S)-4-(4-chlorophenyl)-2,3,9-trimethyl-6H-thieno[3,2-f][1,2,4]triazolo[4,3-a][1,4]diazepin-6-yl)-N-(2-(4-(3-((2-(2,6-dioxopiperidin-3-yl)-1-oxoisoindolin-4-yl)thio)propyl)piperazin-1-yl)ethyl)acetamide], for which the IC50 stood at 0.068 nM with MV-4-11 cells (setting [2]) and 0.04 nM with MV-4-11 cells (setting [3]).

For the origin of these results see patent US12226424B2, “Target protein degradation compounds, their anti-tumor use, their intermediates and use of intermediates” (ShanghaiTech University, priority 2018, dated 2025).
